# Test system: GLP1R
# Experiment: cAMP accumulation assay, GLP1R‐HEK293T cells
# Assay type: cell-based, human
# Details: 0, 0.01, 0.1, 1, 10, 100 nM GLP1, 0.5 mM IBMX, 37 °C, 30 min, cAMP ELISA, n = 3
# Experimental: HEK293T cells (Lenti‐X 293T Cell line; TaKaRa, Shiga, Japan) were maintained in Dulbecco's Modified Eagle Medium (DMEM; Fujifilm Wako Pure Chemical Industries, Osaka, Japan) supplemented with 10% fetal bovine serum (Biowest, Nuaillé, France), 1% non‐essential amino acids (NEAA) (Fujifilm Wako Pure Chemical Industries), and 1% penicillin–streptomycin (P/S) (Fujifilm Wako Pure Chemical Industries) and cultured in non‐coated culture plates at 37 °C and in an incubator with 5% CO2. The culture medium was replaced every 2–3 days. At 80–90% confluence, the cell colonies were digested into single cells using TrypLE Express (Thermo Fisher Scientific). The resulting cells were used for lentiviral transfection and agonist experiments.
# Figure S1 presents the protocol used for this experiment. Lentiviral vectors were acquired from VectorBuilder (VectorBuilder Japan, Inc., Kanagawa, Japan). The mCherry expression vector (pLV‐Puro‐EF1A‐mCherry) was used as a control. pMD2.g plasmid (Addgene plasmid# 12259; RRID: Addgene 12259, Watertown, MA, USA) and psPAX2 plasmids (Addgene plasmid# 12260; RRID: Addgene 12260) were used as packaging plasmids. To produce lentiviruses, HEK293T cells were transduced with lentiviral vectors and packaging constructs containing 2 μg of lentivirus plasmids, 1 μg of pMD2.g, and 1 μg of psPAX2 plasmids using polyethyleneimine (PEI; Polysciences Inc., Warrington, PA, USA). […]
substance,measurement,value
"GLP1: GLP1 (4280‐v; Peptide Institute, Inc.); GLP1 (7–37) in Ca2+ imaging (HAEGTFTSDVSSYLEGQAAKEFIAWLVKGRG; Glucagon-like peptide 1(7-37); UniProt P01275 98-128, looked up)",cAMP production,increased cAMP production with increasing GLP1 concentration
